The results in this text go back to US20070179122A1, “Beta-Aminoacid-Derivatives As Factor Xa Inhibitors” (Sanofi-Aventis Deutschland GmbH, priority 2004, published 2007).

Broadly, the Ki is the equilibrium dissociation constant of an inhibitor or competing ligand from its target.

Structures are written as SMILES.

The target in this assay is T1, human factor Xa (Homo sapiens, UniProt P00742).
T1 construct: 25 μl human factor Xa (Enzyme Research Laboratories, Inc; South Bend, Ind.); purchased Enzyme Research Laboratories, Inc; South Bend, Ind
T1 sequence (P00742 235-488 limits assumed): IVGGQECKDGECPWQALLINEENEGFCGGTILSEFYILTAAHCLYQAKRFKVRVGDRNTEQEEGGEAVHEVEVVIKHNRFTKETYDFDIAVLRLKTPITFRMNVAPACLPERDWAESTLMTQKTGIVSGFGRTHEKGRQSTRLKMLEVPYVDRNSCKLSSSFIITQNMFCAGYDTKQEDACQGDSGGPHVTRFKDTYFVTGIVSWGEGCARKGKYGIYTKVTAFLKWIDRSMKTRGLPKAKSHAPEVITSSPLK
T1 sequence (P00742 41-179 partner limits assumed): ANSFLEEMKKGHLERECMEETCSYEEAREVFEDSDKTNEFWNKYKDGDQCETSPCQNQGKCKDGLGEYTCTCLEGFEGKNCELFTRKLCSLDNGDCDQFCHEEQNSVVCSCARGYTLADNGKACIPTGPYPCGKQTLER
The assay is described as follows: Factor Xa Assay (chromogenic, purified enzyme). The assay is classed as biochemical. The conditions noted are these: inhibition constant for inhibition of factor Xa; chromogenic substrate S-2765 140 μM, enzyme 0.5 nM, 25° C., pH 7.8; Ki=IC50/{1+(substrate concentration/Km)}; read-out: Ki(FXa). An excerpt:
The ability of the compounds of the formula I to inhibit factor Xa or factor VIIa or other enzymes like thrombin, plasmin, or trypsin can be assessed by determining the concentration of the compound of the formula I that inhibits enzyme activity by 50%, i. e. the IC50 value, which was related to the inhibition constant Ki. Purified enzymes were used in chromogenic assays. […] For calculating the inhibition constant Ki, the IC50 value was corrected for competition with substrate using the formula Ki=IC50/{1+(substrate concentration/Km)} wherein Km is the Michaelis-Menten constant (Chen and Prusoff, Biochem. Pharmacol. 22 (1973) 3099-3108; I. H. Segal, Enzyme Kinetics, 1975, John Wiley & Sons, New York, 100-125; which were incorporated herein by reference). a) Factor Xa Assay
The IC50 was determined by combining in appropriate wells of a Costar half-area microtiter plate 25 μl human factor Xa (Enzyme Research Laboratories, Inc.; South Bend, Ind.) in TBS-PEG; 40 μl 10% (v/v) DMSO in TBS-PEG (uninhibited control) or various concentrations of the compound to be tested diluted in 10% (v/v) DMSO in TBS-PEG; and substrate S-2765 (N(α)-benzyloxycarbonyl-D-Arg-Gly-L-Arg-p-nitroanilide; Kabi Pharmacia, Inc.; Franklin, Ohio) in TBS-PEG.
The assay was performed by pre-incubating the compound of formula I plus enzyme for 10 min. Then the assay was initiated by adding substrate to obtain a final volume of 100 μl. The initial velocity of chromogenic substrate hydrolysis was measured by the change in absorbance at 405 nm using a Bio-tek Instruments kinetic plate reader (Ceres UV900HDi) at 25° C. during the linear portion of the time course (usually 1.5 min after addition of substrate). The enzyme concentration was 0.5 nM and substrate concentration was 140 μM.
Consider `O=C(CCNC(=O)c1ccc(Cl)s1)Nc1ccc(-n2ccncc2=O)cc1` [Example 2, 5-Chloro-thiophene-2-carboxylic acid {2-[4-(2-oxo-2H-pyrazin-1-yl)-phenylcarbaminyl]-ethyl}-amide], for which the Ki was determined as 7 nM.
To `O=C(CCNC(=O)c1ccc(Cl)cc1)Nc1ccc(N2CCOCC2=O)cc1` [Example 3, 4-Chloro-N-{2-[4-(3-oxo-morpholin-4-yl)-phenylcarbaminyl]-ethyl}-benzamide] belongs 1390 nM.
The value for `O=C(NCCC(=O)N1CCc2cc(-n3ccncc3=O)ccc21)c1ccc(Cl)s1` [Example 4, 5-Chloro-thiophene-2-carboxylic acid {3-oxo-3-[5-(2-oxo-2H-pyrazin-1-yl)-2,3-dihydro-indol-1-yl]-propyl}-amide] was 40 nM; that for `O=C(NCCC(=O)n1ccc2cc(-n3ccncc3=O)ccc21)c1ccc(Cl)s1` [Example 5, 5-Chloro-thiophene-2-carboxylic acid {3-oxo-3-[5-(2-oxo-2H-pyrazin-1-yl)-indol-1-yl]-propyl}-amide] was 8 nM; that for `O=C(CCNC(=O)c1ccc(Cl)s1)Nc1ccc(-n2ccncc2=O)cc1F` [Example 6, 5-Chloro-thiophene-2-carboxylic acid {2-[2-fluoro-4-(2-oxo-2H-pyrazin-1-yl)-phenylcarbaminyl]-ethyl}-amide] was 4 nM.
To `O=C(NC[C@@H](NCC(F)F)C(=O)Nc1ccc(N2CCOCC2=O)c(C(F)(F)F)c1)c1ccc(Cl)s1` [Example 7, 5-Chloro-thiophene-2-carboxylic acid {(R)-2-(2,2-difluoro-ethylamino)-2-[4-(3-oxo-morpholin-4-yl)-3-trifluoromethyl-phenylcarbaminyl]-ethyl}-amide] belongs 59 nM.
For the compound `O=C(CCNS(=O)(=O)c1ccc(Cl)s1)Nc1ccc(N2CCOCC2=O)cc1` [Example 8, 3-(5-Chloro-thiophene-2-sulfonylamino)-N-[4-(3-oxo-morpholin-4-yl)-phenyl]-propionamide], the Ki was found to be 375 nM.
The value for `O=C(CCNC(=O)c1ccc(Cl)s1)Nc1ccc(N2CCOCS2(=O)=O)cc1` [Example 9, 5-Chloro-thiophene-2-carboxylic acid {2-[4-(3,3-dioxo-[1,3,4]oxathiazinan-4-yl)-phenylcarbaminyl]-ethyl}-amide] was 30 nM; that for `O=C(NCC(F)(F)C(=O)Nc1ccc(-n2ccncc2=O)cc1)c1ccc(Cl)s1` [Example 10, 5-Chloro-thiophene-2-carboxylic acid {2,2-difluoro-2-[4-(2-oxo-2H-pyrazin-1-yl)-phenylcarbaminyl]-ethyl}-amide] was 8 nM; that for `O=C(NCC(F)(F)C(=O)Nc1ccc(N2CCOCC2=O)cc1)c1ccc(Cl)s1` [Example 11, 5-Chloro-thiophene-2-carboxylic acid {2,2-difluoro-2-[4-(3-oxo-morpholin-4-yl)-phenylcarbaminyl]-ethyl}-amide] was 18 nM.
The value for `N=C(N)c1cccc(C(=O)NCCC(=O)Nc2ccc(-n3ccncc3=O)cc2)c1` [Example 12, 3-Carbamimidoyl-N-{2-[4-(2-oxo-2H-pyrazin-1-yl)-phenylcarbaminyl]-ethyl}-benzamide] was 100 nM; that for `COC(=O)c1cc(NC(=O)CCNC(=O)c2ccc(Cl)s2)ccc1N1CCOCC1=O` [Example 13, 5-{3-[(5-Chloro-thiophene-2-carbonyl)-amino]-propionylamino}-2-(3-oxo-morpholin-4-yl)-benzoic acid methyl ester] was 263 nM; that for `O=C(CCNC(=O)c1ccc(Cl)s1)Nc1ccc(N2CCOCC2=O)c(C(=O)O)c1` [Example 14, 5-{3-[(5-Chloro-thiophene-2-carbonyl)-amino]-propionylamino}-2-(3-oxo-morpholin-4-yl)-benzoic acid] was 30000 nM.
To `O=C(CCNC(=O)c1ccc(Cl)s1)Nc1ccc(N2CCOCC2=O)nc1` [Example 15, 5-Chloro-thiophene-2-carboxylic acid {2-[6-(3-oxo-morpholin-4-yl)-pyridin-3-ylcarbamoyl]-ethyl}-amide] belongs 194 nM.
For `O=C(CCNC(=O)c1ccc(Cl)s1)Nc1ccc(N2CCOCC2=O)c(F)c1` [Example 16, 5-Chloro-thiophene-2-carboxylic acid {2-[3-fluoro-4-(3-oxo-morpholin-4-yl)-phenylcarbaminyl]-ethyl}-amide], the Ki came to 15 nM.
The value for `COC(=O)c1cc(N2CCOCC2=O)ccc1NC(=O)CCNC(=O)c1ccc(Cl)s1` [Example 18, 2-{3-[(5-Chloro-thiophene-2-carbonyl)-amino]-propionylamino}-5-(3-oxo-morpholin-4-yl)-benzoic acid methyl ester] was 3 nM; that for `COC(=O)c1cc(-n2ccccc2=O)ccc1NC(=O)CCNC(=O)c1ccc(Cl)s1` [Example 19, 2-{3-[(5-Chloro-thiophene-2-carbonyl)-amino]-propionylamino}-5-(2-oxo-2H-pyridin-1-yl)-benzoic acid methyl ester] was 2 nM; that for `O=C(CCNC(=O)c1ccc(Cl)s1)Nc1ccc(-n2ccccc2=O)cc1C(=O)O` [Example 20, 2-{3-[(5-Chloro-thiophene-2-carbonyl)-amino]-propionylamino}-5-(2-oxo-2H-pyridin-1-yl)-benzoic acid] was 11 nM.
As to `O=C(CCNC(=O)c1ccc(Cl)s1)Nc1ccc(-n2ccc(=O)cc2)cc1` [Example 21, 5-Chloro-thiophene-2-carboxylic acid {2-[4-(4-oxo-4H-pyridin-1-yl)-phenylcarbaminyl]-ethyl}-amide], the inhibitory constant (Ki) was determined as 260 nM.
To `O=C(CCNC(=O)c1ccc(Cl)cc1)Nc1ccc(-n2ccc(=O)cc2)cc1` [Example 22, 4-Chloro-N-{2-[4-(4-oxo-4H-pyridin-1-yl)-phenylcarbaminyl]-ethyl}-benzamide] belongs 4000 nM.
The value for `COC(=O)CN(C(=O)CCNC(=O)c1ccc(Cl)s1)c1ccc(N2CCOCC2=O)cc1` [Example 23, {{3-[(5-Chloro-thiophene-2-carbonyl)-amino]-propionyl}-[4-(3-oxo-morpholin-4-yl)-phenyl]-amino}-acetic acid methyl ester] was 212 nM.
To `O=C(O)CN(C(=O)CCNC(=O)c1ccc(Cl)s1)c1ccc(N2CCOCC2=O)cc1` [Example 24, {{3-[(5-Chloro-thiophene-2-carbonyl)-amino]-propionyl}-[4-(3-oxo-morpholin-4-yl)-phenyl]-amino}-acetic acid] belongs 228 nM; to `O=C(NCCC(=O)N(CC(F)F)c1ccc(N2CCOCC2=O)cc1)c1ccc(Cl)s1` [Example 25, 5-Chloro-thiophene-2-carboxylic acid (2-{(2,2-difluoro-ethyl)-[4-(3-oxo-morpholin-4-yl)-phenyl]-carbamoyl}-ethyl)-amide], 383 nM; to `O=C(N[C@H](CNC(=O)c1ccc(Cl)s1)C(=O)Nc1ccc(N2CCOCC2=O)c(C(F)(F)F)c1)OCc1ccccc1` [Example 26, {(R)-2-[(5-Chloro-thiophene-2-carbonyl)-amino]-1-[4-(3-oxo-morpholin-4-yl)-3-trifluoromethyl-phenylcarbaminyl]-ethyl}-carbamic acid benzyl ester], 12 nM.
